Test results as given in patent publication US4734410A, “Lactam derivatives and their use as hypotensive agents” (Sankyo Company Limited, priority 1985, dated 1988).

Tested on: angiotensin I-induced hypertension
Assay: inhibitory effect on angiotensin I-induced hypertension in vivo after oral administration to rats
Conditions: not given
Method: In addition, the compounds of Examples 2, 3, 7, 10 and 12 were tested in vivo. Each of these test compounds was administered orally to rats and its inhibitory effect on angiotensin I-induced hypertension was determined.

| SMILES | inhibitory effect on angiotensin I-induced hypertension |
| --- | --- |
| CCOC(=O)[C@H](CCc1ccccc1)N[C@H]1CC[C@@H](c2ccccc2)CN(CC(=O)O)C1=O.Cl (single isomer, unassigned) [Example 3] | strong and lasting inhibitory effects |
| CCOC(=O)[C@H](CCc1ccccc1)N[C@H]1CC[C@H](c2ccccc2)CN(CC(=O)O)C1=O.Cl (single isomer, unassigned) [Example 2] | strong and lasting inhibitory effects |
| CCCCOC(=O)[C@H](CCc1ccccc1)N[C@H]1CC[C@H](c2ccccc2)CN(CC(=O)O)C1=O.Cl [Example 12, α-{3(S)-[1(S)-Butoxycarbonyl-3-phenylpropylamino]-2-oxo-6(R)-phenylperhydroazepin-1-yl}acetic acid hydrochloride] | strong and lasting inhibitory effects |
| CCOC(=O)[C@H](CCc1ccccc1)N[C@H]1CC[C@H](c2ccc(F)cc2)CN(CC(=O)O)C1=O.Cl [Example 7, α-{3(S)-[1(S)-Ethoxycarbonyl-3-phenylpropylamino]-6(R)-(p-fluorophenyl)-2-oxoperhydroazepin-1-yl}acetic acid hydrochloride] | strong and lasting inhibitory effects |
| CCCCOC(=O)[C@H](CCc1ccccc1)N[C@H]1CC[C@H](c2ccc(F)cc2)CN(CC(=O)O)C1=O.Cl [Example 10, α-{3(S)-[1(S)-Butoxycarbonyl-3-phenylpropylamino]-6(R)-(p-fluorophenyl)-2-oxoperhydroazepin-1-yl}acetic acid hydrochloride] | strong and lasting inhibitory effects |

Biological target: T1, ACE (Oryctolagus cuniculus, UniProt P12822)
T1 construct: ACE extracted from rabbit lungs; from tissue; host or cells: rabbit lung
T1 sequence (P12822 34-1310): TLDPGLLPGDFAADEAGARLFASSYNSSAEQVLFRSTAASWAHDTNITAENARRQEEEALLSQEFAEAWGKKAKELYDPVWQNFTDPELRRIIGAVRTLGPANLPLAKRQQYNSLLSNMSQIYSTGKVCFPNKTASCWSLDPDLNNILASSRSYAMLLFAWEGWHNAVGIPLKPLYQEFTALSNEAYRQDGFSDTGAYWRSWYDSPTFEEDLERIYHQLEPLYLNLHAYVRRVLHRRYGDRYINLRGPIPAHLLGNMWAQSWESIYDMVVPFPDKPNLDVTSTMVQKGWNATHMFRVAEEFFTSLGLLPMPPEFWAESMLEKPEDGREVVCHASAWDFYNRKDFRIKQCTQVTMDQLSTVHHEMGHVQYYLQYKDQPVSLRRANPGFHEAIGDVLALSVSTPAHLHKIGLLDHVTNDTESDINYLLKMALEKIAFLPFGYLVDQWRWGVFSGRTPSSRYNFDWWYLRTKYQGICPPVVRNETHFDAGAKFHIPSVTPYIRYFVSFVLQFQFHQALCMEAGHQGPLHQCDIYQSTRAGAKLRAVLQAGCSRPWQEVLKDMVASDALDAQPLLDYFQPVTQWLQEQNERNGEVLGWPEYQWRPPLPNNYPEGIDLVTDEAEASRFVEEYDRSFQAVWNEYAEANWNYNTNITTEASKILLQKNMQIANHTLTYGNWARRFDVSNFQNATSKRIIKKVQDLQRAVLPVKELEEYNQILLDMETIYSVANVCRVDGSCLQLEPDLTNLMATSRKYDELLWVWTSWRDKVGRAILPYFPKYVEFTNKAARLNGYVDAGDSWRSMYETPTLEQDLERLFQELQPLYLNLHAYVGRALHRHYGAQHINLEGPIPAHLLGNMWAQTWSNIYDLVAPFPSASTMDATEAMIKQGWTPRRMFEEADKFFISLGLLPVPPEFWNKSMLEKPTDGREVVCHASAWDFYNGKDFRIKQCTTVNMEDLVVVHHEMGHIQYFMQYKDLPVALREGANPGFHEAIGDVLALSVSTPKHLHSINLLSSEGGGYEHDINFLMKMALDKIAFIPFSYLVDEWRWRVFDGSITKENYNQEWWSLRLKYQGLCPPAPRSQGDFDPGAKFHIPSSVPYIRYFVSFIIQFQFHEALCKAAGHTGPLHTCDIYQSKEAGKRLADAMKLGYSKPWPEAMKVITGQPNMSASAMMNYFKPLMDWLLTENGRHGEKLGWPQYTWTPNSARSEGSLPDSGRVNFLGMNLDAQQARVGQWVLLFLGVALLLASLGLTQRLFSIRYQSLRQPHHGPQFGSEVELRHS
Assay: in vitro inhibition of ACE (procedure of D. W. Cushman et al., hippurylhistidylleucine substrate)
Format: biochemical
Conditions: ACE extracted from rabbit lungs, pH 8.3, 37° C., 30 minutes, hippuric acid at 228 nm
Text: As noted above, the compounds of the present invention have the ability to inhibit the activity of ACE, the enzyme which converts angiotensin I to angiotensin II and also inactivates bradykinin. The physiological activity of the compounds of the invention can be evaluated by determining the concentration of the test compound required to inhibit the activity of ACE by 50% in vitro (IC50), for example by the procedure of D. W. Cushman et al. [Biochemical Pharmacology, 20, 1637 (1971)]. Specifically, solutions of ACE extracted from rabbit lungs and, as substrate, hippurylhistidylleucine, to which had been added the test compound at various concentrations, were added to a borate buffer solution containing sodium chloride, and the pH was adjusted to a value of 8.3. The enzymatic reaction was allowed to proceed at 37° C. for 30 minutes, after which time the reaction was terminated by adding 1N aqueous hydrochloric acid. The hippuric acid formed by this reaction was extracted with ethyl acetate and the solvent was then distilled from the extract. The residual hippuric acid was dissolved in water. The amount of hippuric acid in the resulting aqueous solution was determined by the absorbency to ultraviolet radiation at 228 nm. The resulting values were then plotted to form a curve indicating the relationship between the amount of hippuric acid formed and the concentration of the test compound. The IC50 value can be obtained by reading on this curve the concentration of the test compound which reduces the amount of hippuric acid formed to one half of that formed when no test compound is present.

| IC50 [nM] | SMILES |
| --- | --- |
| 1.4 | O=C(O)CN1C[C@@H](c2ccccc2)CC[C@H](N[C@@H](CCc2ccccc2)C(=O)O)C1=O (single isomer, unassigned) [Test Compound A] |
| 2 | O=C(O)CN1C[C@H](c2ccccc2)CC[C@H](N[C@@H](CCc2ccccc2)C(=O)O)C1=O (single isomer, unassigned) [Test Compound B] |
| 1.7 | O=C(O)CN1C[C@@H](c2ccc(F)cc2)CC[C@H](N[C@@H](CCc2ccccc2)C(=O)O)C1=O [Test Compound C, α-{3(S)-[1(S)-carboxy-3-phenylpropylamino]-6(R)-(p-fluorophenyl)-2-oxoperhydroazepin-1-yl}acetic acid] |
